Laboratory results from patent publication US10570454B2, “Methods of identifying individuals at increased risk of lung cancer” (Trustees of Boston University, priority 2007, dated 2020).
Entries after “also recorded” stand apart in the source; their conditions may differ.

Tests used:
[1] = test system: dysplastic airway lesions; settings: cited from earlier work
PI3K [2] = assay: PI3K kinase assay (PIP3 production) in insulin-stimulated BEAS-2B cells; assay type: cell-based; settings: BEAS-2B (bronchial airway cell line), insulin-activated, varying doses
Protocol: (§1) Insulin was used to activate the PI3K pathway in three different cell lines: (FIG. 5A) BEAS-2B (bronchial airway cell line), (FIG. 5B) BT549 (breast cancer cell line), and (FIG. 5C) HEK293 (human embryonic kidney cell line). The cell lines were then treated with varying doses of myo-inositol and LY-294002. PIP3 levels were measured to quantify the activation levels of the PI3K pathway (y-axis). […] Replication of these experiments produced similar results.
(§2) 80% confluent BEAS-2B, BT549, or HEK293 cells were starved in BEBM, RPMI, or DMEM medium, respectively (Clonetics, GibcoBRL). This media contained either 0.1% added supplements for the BEAS-2B cells or 0.1% fetal bovine serum for BT549 and HEK293 cells for 24 hrs. […] The production of PIP3 was evaluated by autoradiography and quantified by densitometry analysis and scintillation analysis. […]
(§3) A reduction in PI3K activity in patients that responded to myo-inositol with a regression of dysplasia in their airway reinforces the association between elevated PI3K activity levels and the presence of pre-neoplastic airway lesions. […] PI3K activity, as measured by PIP3 levels, was then quantified using a standard kinase assay protocol. For this experiment, three different cell lines were analyzed in replicate: BEAS-2B (airway), BT549 (breast cancer) and HEK293 (embryonic kidney). […]

PI3K [3] = assay: PI3K kinase assay (PIP3 production) in insulin-stimulated HEK293 cells; assay type: cell-based; settings: HEK293 (human embryonic kidney cell line), insulin-activated, varying doses
Protocol: as §1, §2, §3

PI3K [4] = assay: PI3K kinase assay (PIP3 production) in insulin-stimulated BT549 cells; assay type: cell-based; settings: BT549 (breast cancer cell line), insulin-activated, varying doses
Protocol: as §1, §2, §3

PI3K pathway = assay: GSEA of PI3K gene sets in cytologically normal airway epithelium before versus after myo-inositol treatment; assay type: in vivo, human
Protocol: Cytologically normal airway epithelial samples from patients with dysplastic airway lesions at the University of British Columbia were collected before and after 2-3 months of treatment with myo-inositol (n=20, 10 patients with two samples each), as well as six additional samples collected pre-treatment with myo-inositol as part of a dose response study. In that study, bronchial brushing was performed in three separate 6-8th generation bronchial airways using a 1.7 mm diameter bronchial cytology brush (Hobbs Medical, Stafford Springs, Conn.). The brush was retrieved and immediately immersed in RNALater and kept frozen at −80° C. until assayed. Epithelial cell content of representative bronchial brushing samples has been quantitated by cytocentrifugation (ThermoShandon Cytospin, Pittsburgh, Pa.) of the cell pellet and staining with a cytokeratin antibody (Signet, Dedham Mass.). The cells in the bronchial brush contained >90% bronchial epithelial cells. […]
Gene Set Enrichment Analysis was calculated using GSEA v2. […] Genes were ranked using the following linear model (as calculated in R): Y=β0+β1+β2+b+ε Where Y is the expression of a gene, β0 is the intercept, β1 measures lung cancer risk (whether the sample has dysplasia or not), β2 is the cumulative cigarette smoke exposure for each person (pack-years), b is a random effect correcting for batch differences, and ε is the error term. […]

O[C@H]1[C@H](O)[C@@H](O)[C@H](O)[C@@H](O)[C@H]1O [myo-inositol]
rate of dysplastic regression ([1]; oral, 2-3 months, smokers with moderate-severe dysplasia, versus placebo-treated control patients): significantly increase the rate of dysplastic regression | side effects ([1]; taken orally): very minor side effects | PI3K activity, as measured by PIP3 levels (PI3K [2]): inhibited PI3K activity levels in a dose-dependent manner; also recorded: drop in PIP3 levels | PI3K activity, as measured by PIP3 levels (PI3K [3]): inhibited PI3K activity levels in a dose-dependent manner; also recorded: drop in PIP3 levels | PI3K activity, as measured by PIP3 levels (PI3K [4]): inhibited PI3K activity levels in a dose-dependent manner; also recorded: drop in PIP3 levels | change in expression of PI3K gene sets (GSEA), before versus after treatment (PI3K pathway; subjects that did not respond to treatment (n=3, 6 samples)): no change in the levels of the PI3K gene sets | change in expression of PI3K gene sets (GSEA), before versus after treatment (PI3K pathway; subjects who did respond to treatment (n=6, 12 samples), p=0.04, FDR Q=0.177): increased expression of genes in the PI3K Down gene set
